Experimental data as given in US20230115907A1, “HETEROCYCLIC COMPOUND AND PHARMACEUTICAL COMPOSITION, PREPARATION METHOD, INTERMEDIATE AND USE THEREOF” (EVOPOINT BIOSCIENCES CO., LTD., priority 2019, published 2023).

Key:
HCC1806 cells = assay: Inhibition of cell proliferation, CellTiter-Glo, HCC1806; assay type: cell-based; conditions: Homo sapiens, HCC1806, 72 h; Efficacy Example 3 (Table 3), incubation for 3 days
Protocol: (§1) HCC70 cells and OVCAR3 cells were digested and counted. Cells were diluted to an appropriate concentration according to cell density. 100 μL of cells were added to each well of a 96-well plate. Medium wells served as blank control (Min). The cells were incubated overnight in an incubator at 37° C./5% CO2.
(§2) A 200-fold stock solution of a compound was prepared with DMSO, and the compound was diluted with growth medium to a 3-fold stock solution, i.e., […] of each of 200-fold stock solutions of compound at different concentrations was added to 197 μL of medium. 50 μL of diluted compound was added to each well and the mixture was incubated at 37° C./5% CO2 for 72 h.
(§3) The 96-well plate was equilibrated to room temperature before detection. 40 μL of CellTiter-Glo solution was added to each well. The mixture was mixed for 2 min using a horizontal shaker to induce cell lysis. The mixture was incubated at room temperature for 60 min to stabilize […] signals. Fluorescence values were read on ENVISION.
(§4) (2) % inhibition rate=(maximum signal−compound signal)/(maximum signal−minimum signal)×100
(§5) The effect of SZ-015200, SZ-015256 and SZ-015268 on cell proliferation after incubation with HCC70, OVCAR-3, HCT116 and HCC1806 cells for 3 days was detected according to the method described in Efficacy Example 2, and the results are shown in Table 3.

[1] = In vivo pharmacokinetics after intragastric administration in rats; design: species or system SD rats; conditions: single intragastric administration, 40 mg/kg; for AUC(0-inf) / AUC(0-t) / Cmax / Tmax / half-life: male, SD, rat, po, plasma; for Cmax and AUC compared with the control compound SZ-015200: in words
Protocol: (§6) Male SD rats were divided into different groups with 3 rats in each group, and single intragastric administration was conducted for each group. The compounds were each formulated with 10% DMSO/10% Solutol/80% (20% Captisol) to reach an appropriate concentration and then administered intragastrically at 40 mg/kg. Blood was taken 5 min, 15 min, 30 min, 1 h, 2 h, 4 h, 6 h, 8 h and 24 h after administration, and then subjected to EDTA-K2 anticoagulation. The concentration of the compound in the plasma was quantitatively detected by an LC-MS/MS method.

OVCAR3 cells = assay: Inhibition of cell proliferation, CellTiter-Glo, OVCAR3; assay type: cell-based; conditions: Homo sapiens, OVCAR-3, 72 h
Protocol: (§7) The compounds were each prepared with 100% DMSO into 10 mM mother liquor.
as §1, §2, §3
(§8) (1) Data was analyzed by GraphPad Prism 5
as §4
(§9) (3) Maximum signal: signal of DMSO well
(§10) (4) Minimum signal: signal of medium well
as §5

[2] = system: human colon cancer cells HCT116 xenograft tumor; assay: In vivo efficacy in subcutaneous xenograft tumor model of human colon cancer cells HCT116; design: species or system BALB/c nude mice; conditions: for Tumor inhibition rate (TGI): day 21; for % proliferation percentage of tumor volume (Day 21 after grouping) / Tumor volume (day 21 after grouping): mean value ± standard error; for Effect on inhibiting tumor proliferation compared with the control compound SZ-015200 (in words): HCT116 xenograft, p.o. QD × 21 days; for Anti-tumor effect (in words): SZ-015256: 25 mg/kg and 15 mg/kg treatment groups, SZ-015268 and SZ-015200: 25 mg/kg treatment group
Protocol: HCT116 tumor cells used in this test were purchased from ATCC. HCT116 tumor cells were cultured in McCoy's 5a medium containing inactivated 10% fetal bovine serum, 100 U/mL penicillin, 100 μg/mL streptomycin and 2 mM glutamine in an incubator at 37° C./5% CO2. The cells were divided and transferred to other bottles every 3 to 4 days for passaging when the culture bottle was full of cells. The tumor cells in the logarithmic growth phase were used for tumor seeding in vivo.
HCT116 tumor cells resuspended in serum-free McCoy's 5a culture solution were seeded subcutaneously into the right costal part of male BALB/c nude mice at 5×10^6/0.1 mL. When the tumor grew to 101 mm^3, animals with uniform tumor volume were selected and divided into groups with 8 animals in each group for administration, and the specific administration regimens are shown in Table 6 below.
Tumor volume: the long and short diameters of the tumor were measured twice every week using a vernier caliper for calculating the tumor volume, and the calculation formula was:
volume=0.5×long diameter×short diameter^2.
[…]=mean value of relative tumor volume of treatment group/mean value of relative tumor volume of control group×100
Tumor growth inhibition rate(TGI,%)=(1−T/C)×100
Statistical analysis between groups was performed for tumor volume using One-Way ANOVA test, and a significant difference was considered to be present when p<0.05.

HCT116 cells = assay: Inhibition of cell proliferation, CellTiter-Glo, HCT116; assay type: cell-based; conditions: Homo sapiens, HCT-116, 72 h; Efficacy Example 3 (Table 3), incubation for 3 days
Protocol: as §1, §2, §3, §4, §5

HCC70 cells = assay: Inhibition of cell proliferation, CellTiter-Glo, HCC70; assay type: cell-based; conditions: Homo sapiens, HCC70, 72 h
Protocol: as §7, §1, §2, §3, §8, §4, §9, §10, §5

CDK7/Cyclin H/MAT1 = CDK7/Cyclin H/MAT1 (Homo sapiens, UniProt P50613); assay: CDK7 inhibition, mobility shift assay
Protocol: The initial concentration of compound was 10 μM, and the compound was 3-fold diluted to obtain 10 concentrations. Duplicate wells were set for the assay, and the pre-incubation time of compound and enzyme was 60 min.
Compound powders were dissolved in 100% DMSO to prepare 10 mM stock solution, which was 3-fold diluted with DMSO, with 0.5 mM as the initial concentration, to obtain 10 concentration gradients of compound solutions.
(1) Compound at each concentration was 8.3-fold diluted with ddH2O, and then 2 μL of each compound solution and positive control were added to a 384-well plate.
(2) 5 μL of a kinase working solution (CDK7/Cyclin H/MAT1) was added to the compound wells and positive control wells to make the final concentration of CDK7 be 3 nM.
(3) The plate was pre-incubated at room temperature for 60 min.
(5) The 384-well plate was incubated at 27° C. for 36 min.
(6) 4 μL of 80 mM EDTA was added to terminate the reaction.
(7) The conversion rates were read using a Caliper EZ Reader II.

[3] = In vivo pharmacokinetics after intragastric administration in mice; conditions: single intragastric administration, 20 mg/kg; for AUC(0-inf) / AUC(0-t) / Cmax / Tmax / half-life: male, ICR, mouse, po, plasma; for Cmax and AUC compared with the control compound SZ-015200: in words
Protocol: as §6, with “1CR mice” for “SD rats”, “mice” for “rats”, “([…]” for “(20%”, “20” for “40”

[4] = Efficacy Example 2 (Table 2), 72 h incubation
[5] = Efficacy Example 3 (Table 3), incubation for 3 days

Sequence of CDK7/Cyclin H/MAT1 (P50613 whole entry): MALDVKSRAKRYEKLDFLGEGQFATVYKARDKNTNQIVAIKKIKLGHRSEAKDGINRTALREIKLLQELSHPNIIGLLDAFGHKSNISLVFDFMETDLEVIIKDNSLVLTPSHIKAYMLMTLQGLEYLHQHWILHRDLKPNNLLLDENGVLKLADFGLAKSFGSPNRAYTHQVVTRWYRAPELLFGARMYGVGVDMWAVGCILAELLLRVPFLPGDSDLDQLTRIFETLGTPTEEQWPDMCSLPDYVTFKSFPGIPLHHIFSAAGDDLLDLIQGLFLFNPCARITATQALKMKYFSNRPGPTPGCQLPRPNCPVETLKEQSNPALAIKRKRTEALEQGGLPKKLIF
Sequence of CDK7/Cyclin H/MAT1 (P51946 whole entry partner): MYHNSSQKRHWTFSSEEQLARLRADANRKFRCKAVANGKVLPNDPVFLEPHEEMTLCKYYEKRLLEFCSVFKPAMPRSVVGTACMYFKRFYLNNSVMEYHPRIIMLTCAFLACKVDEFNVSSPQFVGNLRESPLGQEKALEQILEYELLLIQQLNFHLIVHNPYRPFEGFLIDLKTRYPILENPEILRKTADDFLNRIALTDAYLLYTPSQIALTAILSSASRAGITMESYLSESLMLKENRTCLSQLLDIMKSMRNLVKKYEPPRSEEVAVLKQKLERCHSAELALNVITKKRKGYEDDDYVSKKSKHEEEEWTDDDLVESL
Sequence of CDK7/Cyclin H/MAT1 (P51948 whole entry partner): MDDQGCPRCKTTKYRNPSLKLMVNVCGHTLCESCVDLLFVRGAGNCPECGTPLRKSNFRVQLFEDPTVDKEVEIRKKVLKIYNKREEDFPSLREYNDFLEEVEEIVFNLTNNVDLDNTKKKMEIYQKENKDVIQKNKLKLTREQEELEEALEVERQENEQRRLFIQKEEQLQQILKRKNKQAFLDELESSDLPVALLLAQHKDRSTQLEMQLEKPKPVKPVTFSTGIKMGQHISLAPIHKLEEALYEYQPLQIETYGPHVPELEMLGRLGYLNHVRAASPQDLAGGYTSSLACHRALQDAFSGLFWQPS

Cc1nc(NC2CCN(C(=O)O[C@H]3CCN(C(=O)/C=C/CN(C)C)C3)CC2)n2ncc(C(C)C)c2n1 [SZ-015256, (S,E)-1-(4-(dimethylamino)but-2-enoyl)pyrrolidin-3-yl 4-((8-isopropyl-2-methylpyrazolo[1,5-a][1,3,5]triazin-4-yl)amino)piperidine-1-carboxylate]
IC50 (HCC1806 cells): 44.5 nM | AUC(0-inf) [1]: 7880 ng·h/mL | AUC(0-t) [1]: 7830 ng·h/mL | Cmax [1]: 783 ng/mL | Tmax [1]: 4.67 h | half-life [1]: 2.99 h | Cmax and AUC compared with the control compound SZ-015200 [1]: The results show that compared with the control compound SZ-015200, the Cmax and the AUC of SZ-015256 and SZ-015268 in rats after single intragastric administration were significantly higher, which indicates that SZ-015256 and SZ-015268 have better pharmacokinetic properties. | IC50 (OVCAR3 cells; [4]): 75.1 nM | IC50 (OVCAR3 cells; [5]): 45.3 nM | Tumor inhibition rate (TGI) ([2]; 15 mg/kg p.o. QD × 21 days): 61.6% | % proliferation percentage of tumor volume (Day 21 after grouping) ([2]; 15 mg/kg p.o. QD × 21 days): 407 ± 40% | Tumor volume (day 21 after grouping) ([2]; 15 mg/kg p.o. QD × 21 days): 402 ± 42 mm^3 | Tumor inhibition rate (TGI) ([2]; 25 mg/kg p.o. QD × 21 days): 81.9% | % proliferation percentage of tumor volume (Day 21 after grouping) ([2]; 25 mg/kg p.o. QD × 21 days): 192 ± 38% | Tumor volume (day 21 after grouping) ([2]; 25 mg/kg p.o. QD × 21 days): 201 ± 43 mm^3 | Effect on inhibiting tumor proliferation compared with the control compound SZ-015200 (in words) [2]: stronger effect on inhibiting tumor proliferation | Anti-tumor effect (in words) [2]: significant anti-tumor effect | IC50 (HCT116 cells): 25.3 nM | IC50 (HCC70 cells; [4]): 175 nM | IC50 (HCC70 cells; [5]): 50.9 nM | IC50 (CDK7/Cyclin H/MAT1): 54.3 nM | AUC(0-inf) [3]: 6380 ng·h/mL | AUC(0-t) [3]: 6260 ng·h/mL | Cmax [3]: 3380 ng/mL | Tmax [3]: 0.5 h | half-life [3]: 1.48 h | Cmax and AUC compared with the control compound SZ-015200 [3]: significantly higher

Cc1cc(NC2CCN(C(=O)O[C@H]3CCN(C(=O)/C=C/CN(C)C)C3)CC2)c2ncn(C(C)C)c2n1 [SZ-015095, (S,E)-1-(4-(dimethylamino)but-2-enoyl)pyrrolidin-3-yl 4-((3-isopropyl-5-methyl-3H-imidazo[4,5-b]pyridin-7-yl)amino)piperidine-1-carboxylate]
IC50 (OVCAR3 cells; [4]): 138 nM | IC50 (HCC70 cells; [4]): 479 nM | IC50 (CDK7/Cyclin H/MAT1): 128 nM

Cc1nc(NC2CCN(C(=O)O[C@H]3CCN(C(=O)/C=C/CN(C)C)C3)CC2)c2ncc(C(C)C)n2n1 [SZ-015268, (S,E)-1-(4-(dimethylamino)but-2-enoyl)pyrrolidin-3-yl 4-((7-isopropyl-2-methylimidazo[2,1-f][1,2,4]triazin-4-yl)amino)piperidin-1-carboxylate]
IC50 (HCC1806 cells): 61.5 nM | AUC(0-inf) [1]: 4510 ng·h/mL | AUC(0-t) [1]: 4450 ng·h/mL | Cmax [1]: 543 ng/mL | Tmax [1]: 4 h | half-life [1]: 3.92 h | Cmax and AUC compared with the control compound SZ-015200 [1]: The results show that compared with the control compound SZ-015200, the Cmax and the AUC of SZ-015256 and SZ-015268 in rats after single intragastric administration were significantly higher, which indicates that SZ-015256 and SZ-015268 have better pharmacokinetic properties. | IC50 (OVCAR3 cells; [4]): 29.9 nM | IC50 (OVCAR3 cells; [5]): 80.6 nM | Tumor inhibition rate (TGI) ([2]; 25 mg/kg p.o. QD × 21 days): 84.3% | % proliferation percentage of tumor volume (Day 21 after grouping) ([2]; 25 mg/kg p.o. QD × 21 days): 167 ± 39% | Tumor volume (day 21 after grouping) ([2]; 25 mg/kg p.o. QD × 21 days): 172 ± 41 mm^3 | Effect on inhibiting tumor proliferation compared with the control compound SZ-015200 (in words) [2]: stronger effect on inhibiting tumor proliferation | Anti-tumor effect (in words) [2]: significant anti-tumor effect | IC50 (HCT116 cells): 12.5 nM | IC50 (HCC70 cells; [4]): 57.5 nM | IC50 (HCC70 cells; [5]): 33 nM | AUC(0-inf) [3]: 3150 ng·h/mL | AUC(0-t) [3]: 3100 ng·h/mL | Cmax [3]: 1540 ng/mL | Tmax [3]: 0.42 h | half-life [3]: 1.39 h | Cmax and AUC compared with the control compound SZ-015200 [3]: not lower

Cc1cc(NC2CCN(C(=O)O[C@H]3CCN(C(=O)/C=C/CN(C)C)C3)CC2)c2ncc(C(C)C)n2n1 [SZ-015273, (S,E)-1-(4-(dimethylamino)but-2-enoyl)pyrrolidin-3-yl 4-((3-isopropyl-6-methylimidazo[1,2-b]pyridazin-8-yl)amino)piperidin-1-carboxylate]
IC50 (OVCAR3 cells; [4]): 31.9 nM | IC50 (HCC70 cells; [4]): 291 nM | IC50 (CDK7/Cyclin H/MAT1): 44.5 nM

Cc1cc2c(ncn2C(C)C)c(NC2CCN(C(=O)O[C@H]3CCN(C(=O)/C=C/CN(C)C)C3)CC2)n1 [SZ-015272, (S,E)-1-(4-(dimethylamino)but-2-enoyl)pyrrolidin-3-yl 4-((1-isopropyl-6-methyl-1H-imidazo[4,5-c]pyridin-4-yl)amino)piperidine-1-carboxylate]
IC50 (OVCAR3 cells; [4]): 460 nM | IC50 (HCC70 cells; [4]): 948 nM | IC50 (CDK7/Cyclin H/MAT1): 278 nM

Cc1cn2c(C(C)C)cnc2c(NC2CCN(C(=O)O[C@H]3CCN(C(=O)/C=C/CN(C)C)C3)CC2)n1 [SZ-015274]
IC50 (OVCAR3 cells; [4]): 151 nM | IC50 (HCC70 cells; [4]): 187 nM | IC50 (CDK7/Cyclin H/MAT1): 197 nM

Cc1nc(NC2CCN(C(=O)O[C@H]3CCN(C(=O)/C=C/CN(C)C)C3)CC2)c2ncc(C(C)C)n2n1 [SZ-0015268]
IC50 (CDK7/Cyclin H/MAT1): 23.6 nM

CC[C@H](CO)Nc1cc(NC2CCN(C(=O)O[C@H]3CCN(C(=O)/C=C/CN(C)C)C3)CC2)c2ncc(C(C)C)n2n1 [SZ-015317, (S)-1-((E)-4-(dimethylamino)but-2-enoyl)pyrrolidin-3-yl 4-((6-(((R)-1-hydroxybutan-2-yl)amino)-3-isopropylimidazo[1,2-b]pyridazin-8-yl)amino) piperidine-1-carboxylate]
IC50 (OVCAR3 cells; [4]): 429 nM | IC50 (HCC70 cells; [4]): 237 nM

CC(C)c1cnn2c(NC3CCN(C(=O)O[C@H]4CCN(C(=O)/C=C/CN(C)C)C4)CC3)nc(NC3CC3)nc12 [SZ-015331, (S,E)-1-(4-(dimethylamino)but-2-enoyl)pyrrolidin-3-yl 4-((2-(cyclopropylamino)-8-isopropylpyrazolo[1,5-a][1,3,5]triazin-4-yl)amino)piperidine-1-carboxylate]
IC50 (OVCAR3 cells; [4]): 36.7 nM | IC50 (HCC70 cells; [4]): 70.1 nM

CC(C)c1nc(NC2CCN(C(=O)O[C@H]3CCN(C(=O)/C=C/CN(C)C)C3)CC2)c2ncc(C(C)C)n2n1 [SZ-015339, (S,E)-1-(4-(dimethylamino)but-2-enoyl)pyrrolidin-3-yl 4-((2,7-diisopropylimidazo[2,1-f][1,2,4]triazin-4-yl)amino)piperidine-1-carboxylate]
IC50 (OVCAR3 cells; [4]): 64.3 nM | IC50 (HCC70 cells; [4]): 54.7 nM

CC#CC(=O)N1CC[C@H](OC(=O)N2CCC(Nc3nc(C)nc4c(C(C)C)cnn34)CC2)C1 [SZ-015294, (S)-1-(but-2-ynoyl)pyrrolidin-3-yl 4-((8-isopropyl-2-methylpyrazolo[1,5-a][1,3,5]triazin-4-yl)amino)piperidine-1-carboxylate]
IC50 (OVCAR3 cells; [4]): 72.1 nM | IC50 (HCC70 cells; [4]): 50.2 nM
